# Source: patent US9062899B2, “Pairs of working substances for absorption heat pumps, absorption refrigeration machines and heat transformers” (BASF SE, priority 2004, dated 2015)
# Columns and labels:
# [1] = partial pressure of water over aqueous 2-hydroxyethylammonium formate solution, FTIR spectroscopy in the gas phase; assay type: physicochemical
# Description: For this purpose, the partial pressure of water over an aqueous 2-hydroxyethylammonium formate solution was determined at a customary phase equilibrium temperature (by means of FTIR spectroscopy in the gas phase).
# [2] = miscibility of ionic liquid with working substance water; assay type: physicochemical
smiles,measurement,setting,value
NCCO.O=CO [2-hydroxyethylammonium formate],factor by which the vapor pressure of water is reduced on dissolution in the ionic liquid,[1],4
same,partial pressure of water over the solution,"[1]; 30.5° C., 84% by weight of 2-hydroxyethylammonium formate and 16% by weight of water, water itself about 40 mbar",about 10 mbar
same,partial pressure of water over the solution,"[1]; 34° C., 87% by weight of 2-hydroxyethylammonium formate and 13% by weight of water, water itself about 50 mbar",about 12 mbar
CCn1cc[n+](C)c1.O=S(=O)([O-])C(F)(F)F [ethylmethylimidazolium triflate],miscibility with water,[2],can be mixed with water
